The text below walks through data of ChEMBL document CHEMBL1130114 (J Med Chem, 1997).

What all share (test): biochemical
In assay [1] the target is Adenosine receptor A2a (Homo sapiens, UniProt P29274, V84L).
For assay [2], the target named is Adenosine receptor A2a (Homo sapiens, UniProt P29274, H250N).
Assay [3] has as its target Adenosine receptor A2a (Homo sapiens, UniProt P29274).
Description: Binding affinity for HA-tagged wild type human Adenosine A2A receptor (WT) using [3H]CGS-21680 as radioligand expressed in COS-7 cells

Chain of Adenosine receptor A2a (Homo sapiens, UniProt P29274) (P29274 whole entry): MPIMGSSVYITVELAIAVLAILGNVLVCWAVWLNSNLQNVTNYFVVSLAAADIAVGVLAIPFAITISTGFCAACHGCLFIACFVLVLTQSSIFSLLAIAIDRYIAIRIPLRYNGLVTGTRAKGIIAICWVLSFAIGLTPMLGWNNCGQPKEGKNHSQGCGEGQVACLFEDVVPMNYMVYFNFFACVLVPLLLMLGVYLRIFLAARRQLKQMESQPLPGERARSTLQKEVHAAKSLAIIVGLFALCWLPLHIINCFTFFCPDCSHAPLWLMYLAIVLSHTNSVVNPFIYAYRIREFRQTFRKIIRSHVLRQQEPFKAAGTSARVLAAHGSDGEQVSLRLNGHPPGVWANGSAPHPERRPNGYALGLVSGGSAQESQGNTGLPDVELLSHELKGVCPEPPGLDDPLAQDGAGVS
Chain of Adenosine receptor A2a (Homo sapiens, UniProt P29274, V84L) (P29274 whole entry V84L): as the sequence (P29274 whole entry) above, with V84L counted along it
Chain of Adenosine receptor A2a (Homo sapiens, UniProt P29274, H250N) (P29274 whole entry H250N): as the sequence (P29274 whole entry) above, with H250N counted along it

The term Ki denotes the dissociation constant of the complex between target and ligand, obtained from inhibition or displacement. A high value points to a looser hold on the target. Regarding `COc1cc(OC)cc(C(CNc2ncnc3c2ncn3[C@@H]2O[C@H](CO)[C@@H](O)[C@H]2O)c2ccccc2C)c1` (stereo not given in full), the inhibition constant Ki was determined as 0.0189 µM in assay [1], 0.0359 µM in assay [2] and 0.0381 µM in assay [3].
The matching figures for `CCOC(=O)c1sc(SCc2ccccc2)c2c1CCCC2=O`: 72.6 µM, 54.3 µM and 106 µM.
`N=C(N)NC(=O)c1nc(Cl)c(N)nc1N` [AMILORIDE]: the Ki was found to be 11.6 µM in assay [1], 3.28 µM in assay [2] and 12 µM in assay [3].
The matching figures for `O=c1c(O)c(-c2ccccc2)oc2cc(O)cc(O)c12` [GALANGIN]: 18.1 µM, 33 µM and 16.7 µM.
For the compound `COC(=O)C1=C(C)NC(C)=C(C(=O)OC)C1c1ccccc1[N+](=O)[O-]` [NIFEDIPINE], the inhibition constant (Ki) in assay [1] was 22.2 µM; in assay [2] it was 22.2 µM; in assay [3], 244 µM.
